In patent US20220288091A1, “Method for Improving Insulin Sensitivity” (priority 2019, published 2022):

Tests used:
Assay type in all cases: in vivo, human
[1] = Adverse events and safety laboratory monitoring; details: 50 mg every 6 hours for 9 days
Description: All subjects were instructed to record any adverse effects and to report them to study personnel, and women were advised to keep a record of any abnormal menstrual bleeding. For proper safety monitoring, subjects returned approximately one week (day 19) and three weeks (day 33) after the discontinuation of the study drug for both treatment arms. During this safety visit, serum electrolytes, renal and liver function, and complete blood count were measured, as well as evaluation and treatment for potential treatment-related abnormalities/adverse events.

[2] = Plasma hormone levels (testosterone, androstenedione, DHEA sulfate); details: 50 mg every 6 hours for 9 days, mean±SD
Description: (§1) To reduce potential variability associated with estrogen in premenopausal women, testing was performed in the early follicular phase (days 1-7 of menstrual cycle). Baseline height and weight were measured after an overnight fast. Subjects received an isocaloric regular diet during the inpatient part of the study, and those on metformin took the same dose throughout the study. Baseline testing took place took place over three inpatient days at the NIH Clinical Center, during which fasting blood was drawn, 24-hour urine was collected, 24-hour serial blood draws were obtained, and patients received both a […] (FSIVGTT) and a 75-g oral glucose tolerance test (OGTT). Subjects were then randomized to receive placebo or mifepristone for 9 days, of which the first 6 days the subjects returned home, and the final 3 days subjects underwent the same metabolic testing as during the baseline period. Subjects randomized to the mifepristone treatment arm were instructed to take one capsule (50 mg) every 6 hours (200 mg/day) over the course of 9 days. The placebo treatment arm received the same instructions to take one capsule every 6 hours over the course of the 9-day treatment period. Following the completion of the post-drug testing, subjects entered a 6-8 week washout period, after which they were crossed over to the other treatment arm, serving as their own controls for the study drug treatments.

[3] = Body weight, blood pressure and serum lipids after 9-day administration; details: 50 mg every 6 hours for 9 days; mean±SD, n=16
Description: as §1
Changes in body weight, BP and serum lipid concentrations for each study subject were evaluated at baseline and after 9-day administration of mifepristone or placebo, There were no significant differences observed in body weight or BMI between the treatment arms. BP was higher after mifepristone treatment for both systolic and diastolic values.

[4] = tested on: hypothalamic-pituitary-adrenal axis; assay: 24-hour profile of ACTH and cortisol
Description: as §1
Data shown are mean±SEM with p values provided for the effects of treatment group, time, and the treatment-time interaction, which was obtained with repeated-measures ANOVA with post-hoc Bonferroni's test. Tukey box and whisker plots show ACTH (B) and cortisol (D) area under the curve for the 24-hour period. Top and bottom box limits represent the 75th and 25th percentile, respectively; midlines represent the median, and top and bottom whiskers represent the 75th percentile plus 1.5 of the interquartile range (IQR) and the 25th percentile minus 1.5 IQR, respectively. Post-treatment values were adjusted for baseline and treatment group using mixed-model regression. P values indicate significance for comparisons between mifepristone and placebo.

[5] = tested on: overweight or obese subjects with prediabetes or mild type 2 diabetes; assay: 75-g oral glucose tolerance test (OGTT); details: 50 mg every 6 hours for 9 days
Description: A randomized, placebo-controlled, double-blind crossover trial was conducted to evaluate the use of an anti-glucocorticoid as a means for ameliorating insulin resistance. Mifepristone, 50 mg, or a placebo, was administered every six hours for nine days to sixteen overweight or obese (BMI 25-37 kg/m^2) subjects (seven women). Participant ages ranged from 48 to 64 years. Ten had prediabetes and six had mild diabetes type II (HgbA1c less than 7%). Treatment of the glucose disorder with diet or a stable dose of metformin (used by two patients) was maintained for three (3) months before the study. The interventions were nine days of mifepristone or placebo treatment followed by a six (6) to eight (8) week wash out and cross over to the other arm. At baseline and at the end of each treatment period, parameters of insulin sensitivity were assessed by a frequently sampled intravenous glucose tolerance test (FSIVGTT) and an oral glucose tolerance test (OGTT). A whole body glucose disposal index of insulin sensitivity (SI) was derived using a minimal model analysis. Adipose tissue-SI, which reflects insulin-induced free fatty acid suppression, was estimated by the log-linear slope of free fatty acid levels and the AUC of insulin during the FSIVGTT. Matsuda index, oral glucose insulin sensitivity index (OGIS, ml/min/m^2), and hepatic insulin resistance index (HIRI, mg/dl×microU/ml×10^5) were derived from OGTT. Adipo-IR, a surrogate measure of adipocyte insulin resistance, was calculated by multiplying fasting concentrations of free fatty acids and insulin (mmol×pmol/L). Comparison of various post-treatment parameters was performed using crossover ANOVA. This analysis takes into account specific treatment arm, treatment order, and treatment effects. Thus, carryover effects were explicitly tested for in the crossover study.
On day 3 of baseline and post-treatment testing, subjects underwent a 75-gram OGTT. Serial blood draws for measurement of glucose, insulin and c-peptide were obtained at −5, 0, 30, 60, 90, 120, 150, and 180 minutes.
The Matsuda index and Oral Glucose Insulin Sensitivity Index (OGIS), surrogate indices of whole-body insulin sensitivity were derived from plasma glucose and insulin concentrations during the OGTT as previously described. Abdul-Ghani M A, et. al., Diabetes Care 2007; 30 (1): 89-94. HIRI was calculated as the product of the area under the curves of glucose and insulin for the first 30 minutes of the OGTT. Abdul-Ghani M A, ibid. The Adipo-IR index, a surrogate measure for fasting adipose adipose-tissue insulin resistance, was calculated as the product of fasting insulin and fasting FFA. Sondergaard E. et al., J. Clin. Endocrinol. Metab. 2017; 102(4):1193-9. A dynamic surrogate index of adipose tissue insulin sensitivity was assessed by calculating insulin's ability to suppress FFA levels during a FSIVGTT. Carpenter A. et al., Diabetes 2002; 51(6):1867-75 and Trottier A. et al. Fertil. Steril. […]; 98 (6):1627-34. The adipose tissue insulin sensitivity index was calculated as the ratio of the slope of the linear decrease in natural log transformed FFA [Ln (FFA) slope] during the first 90 minutes of the FSIVGTT and the AUC of insulin during that 90-minute period (AUCInsulin 0-90 min). Mathematical modeling of C-peptide concentrations was used to estimate insulin secretory rates and calculate β-cell responsivity parameters (basal (∅B); first-phase (∅1); second phase (∅2); and total (∅TOT) as previously described. Toffolo G. et al., Metabolism 1999; 48 (9):1162-6 and Cobelli C. et al. Am. J. Physiol. Endocrinol. Metab. 2007; 293 (1): E1-E5. Assuming an absence of hepatic C-peptide extraction, postprandial insulin clearance was calculated as the ratio of mean insulin secretion and insulin concentration. Trico D. et al. JCI Insight 2018; 3(24):e124912.

[6] = 50 mg every 6 hours for 9 days, all subjects

Question: With `CC#C[C@]1(O)CC[C@H]2[C@@H]3CCC4=CC(=O)CCC4=C3[C@@H](c3ccc(N(C)C)cc3)C[C@@]21C` [Mifepristone, 11beta-[p-(dimethylamino)phenyl]-17alpha-(1-propynl)estra-4,9-dien-17beta-ol-3-one] as the molecule, how does the Serious adverse events [1] read?
Answer: The Serious adverse events was “No serious adverse events”.

Question: What about the Androstenedione ([2]; n=16) of the same molecule?
Answer: Its Androstenedione is 110 ± 64.7 ng/dL.

Question: What about the “DHEA Sulfate” value ([2]; n=16) of the same molecule?
Answer: The value was 1.04 ± 0.64 µg/mL.

Question: What about the “Total testosterone (male)” value ([2]; male subjects) of the same molecule?
Answer: Its value is 235.2 ± 87.5 ng/dL.

Question: What about the “Body-Mass Index” value [3] of the same molecule?
Answer: The value was 32.2 ± 3.9 kg/m^2.

Question: And the “Diastolic Blood Pressure” value [3]?
Answer: Its value is 77 ± 9.2 mmHg.

Question: What about the “HDL Cholesterol” value [3] of the same molecule?
Answer: The value was 41.3 ± 11.9 mg/dL.

Question: And the “LDL Cholesterol” value [3]?
Answer: The value was 97.1 ± 34.6 mg/dL.

Question: And the “Systolic Blood Pressure” value [3]?
Answer: Its value is 130 ± 13 mmHg.

Question: What about the “Total Cholesterol” value [3] of the same molecule?
Answer: Its value is 163.6 ± 419 mg/dL.

Question: What about the Triglycerides [3] of the same molecule?
Answer: The Triglycerides was 125.6 ± 65.6 mg/dL.

Question: And the “ACTH area under the curve (AUC), 24-hour” value [4, 6]?
Answer: Its value is 574.5 ± 260.8 pg·min/mL.

Question: What about the “Cortisol area under the curve (AUC), 24-hour” value [4, 6] of the same molecule?
Answer: The value was 255.4 ± 61.9 µg·min/dL.

Question: And the “Serum cortisol AUC, subjects with higher 24-hr UFC” value ([4]; mifepristone arm, subgroup with higher 24-hr UFC)?
Answer: The value was 284.9 ± 39.9 µg·min/dL.

Question: And the “Serum cortisol AUC, subjects with normal 24-hr UFC” value ([4]; mifepristone arm, subgroup with normal 24-hr UFC)?
Answer: Its value is 229.8 ± 68.5 µg·min/dL.

Question: What about the “Insulin clearance during OGTT vs placebo” value [5] of the same molecule?
Answer: Its value is “lower”.

Question: What about the “AUC for glucose during OGTT vs placebo” value ([5]; 3-hr OGTT) of the same molecule?
Answer: The value was “not statistically significant”.

Question: And the “AUC for insulin during OGTT, lower compared to placebo” value ([5]; 3-hr OGTT)?
Answer: Its value is “about 25%”.

Question: And the “Hepatic Insulin Resistance Index (HIRI)” value ([5]; AUC glucose × AUC insulin, first 30 min of OGTT, mean±SD, n=16)?
Answer: Its value is 50.2±38.7 mg/dl×microU/ml×10^5.

Question: And the “Fasting insulin secretory rate (ISR) vs placebo” value ([5]; C-peptide modeling)?
Answer: The value was “significantly lower”.

Question: And the “ISR during OGTT vs placebo” value ([5]; C-peptide modeling)?
Answer: The value was “not different”.

Question: And the “Static, dynamic and total β-cell responsivity indices vs placebo” value ([5]; derived from OGTT)?
Answer: The value was “similar”.
